Measurements taken from publication PMC12507957 (Drug Delivery and Translational Research, 2025).
Where two headings read alike, the source gives them in different places.

Columns and labels:
[1] = Forced degradation studies of MTG; assay type: physicochemical; conditions: over 24 h
Procedure: Samples were taken at 6, 12 and 24 h for dissolution and/or dilution before HPLC analysis (Sect. HPLC analysis).
(§1) Samples were analysed using Shimadzu liquid chromatographic system (Kyoto, Japan) with SPD-20A UV–vis detector set at 254 nm. A reverse phase ZORBAX Eclipse Plus C18 column (Agilent Technologies, 150 × 4.6 mm ID × 3.5 μm) coupled with a C18 guard column (Phenomenex SecurityGuard™, 4 × 3.0 mm ID × 5 μm) was employed as the stationary phase. A gradient elution method with acetonitrile and 0.1%v/v of formic acid as the mobile phase (30:70 to 70:30 (v/v) over 1 min and held until 4 min; then returned to 30:70 (v/v) from 4 to 6 min and held up until 10 min) at a flow rate of 1.2 mL/min was used. The injection volume was set at 100 μL and the total run time was 10 min with a retention time of ~ 4 min.

[2] = Stability of MTG in PBS receptor medium with antioxidants (DTT, ascorbic acid); assay type: physicochemical; conditions: 32 °C
Procedure: The drug content was analysed using HPLC (Sect. HPLC analysis) at 24, 48, 72 and 96 h.
as §1, with “min. The limits of detection and quantification were 0.47 and 1.43 μg/mL for a lower concentration drug range (0.5–10 μg/mL) and 4.29 and 13.01 μg/mL for a higher concentration drug range (10–175 μg/mL), respectively. The linearity for both calibration curves was excellent (R^2 > 0.999).” for “min.”

[3] = In vitro drug release of MTG from gels (Franz cell); conditions: nylon membrane, time point not clearly stated (steady release up to 2 h)
Procedure: (§2) The in vitro permeation study was performed in triplicate using Franz diffusion cell apparatus with a diffusion area of ~ 0.8 cm^2 and a receptor volume of ~ 3 mL. The porcine skin was thawed at room temperature and cut into an appropriate size before mounting on the Franz diffusion cells. The receptor compartment was filled with PBS containing 0.02%w/v of sodium azide and a selected antioxidant. The Franz diffusion cells were placed into a water bath to maintain the skin temperature at 32 ± 0.5 °C. […] After 48-h permeation studies, the mass balance studies were performed. The samples were extracted for MTG content overnight before HPLC analysis.
(§3) BHT at the optimised concentration was also added accordingly. The gels were evaluated for their drug content by mixing the gel in methanol for overnight extraction of MTG before HPLC analysis (Sect. HPLC analysis). In vitro drug release studies were carried out with a similar experimental setup as described in Sect. In vitro permeation and mass balance studies but porcine skin was replaced with a 0.45 µm nylon membrane filter and 40 μL of gel was loaded on the membrane at the donor compartment. Subsequent in vitro permeation and mass balance studies were performed as described in Sect. In vitro permeation and mass balance studies by loading 40 μL of the gel on the skin.

[4] = In vitro skin permeation of MTG from gel formulations, with infinite dose model fitting; assay type: in vitro ADME, porcine; conditions: for Permeation (cumulative amount of MTG permeated): 48 h
Procedure: as §2
To estimate the permeation parameters (P1 and P2), the in vitro permeation data were fitted to the infinite dose model (Eq. 1) using non-linear least squares. This infinite dose model was obtained by solving the diffusion equation using Laplace transform, which was subsequently numerically inverted using Weeks method and fitted to in Python 3.13.3 (Python Software Foundation, Wilmington, DE, US).1 Q¯s=J·A/s=P1ACd/ss/P2sinhs/P2
Here, Q¯s is the cumulative amount of drug permeated, J is the permeation flux, A is the permeation area, Cd is the initial concentration, h is the membrane thickness and s is the Laplace variable. The apparent partition and apparent diffusion coefficients, P1 and P2, are related to the h and the diffusion (D) and partition (K) coefficients, as defined in Eq. 2 and Eq. 3 [32]. The goodness of fit was measured based on the coefficient of determination (R^2) and root mean square error (RMSE).2 P1=Kh 3 P2=D/h^2
The permeability coefficient (Kp), steady-state flux (Jss) and lag time (tlag) can then be calculated using Eqs. 4, 5, and 6 [33] with the estimated values of P1 and P2 from the curve fitting.4 Kp=P1P2 5 Jss=KpCd 6 tlag=h^2/6D
Other permeation parameters were determined experimentally, where A was 0.7–0.8 cm^2, h was 0.0586 cm, Cd was 50 mg/mL and the volume of drug loaded was 40 µL.
as §3

[5] = Mass balance studies after skin permeation of MTG gels; assay type: in vitro ADME, porcine; conditions: pig
Procedure: as §2
Immediately post-application, any remaining MTG was swabbed from the skin surface with cotton buds and added into an Eppendorf tube. Subsequently, the surface of the skin was washed twice with 500 μL of methanol before adding to the same Eppendorf tube containing the cotton buds. The skin was removed from the dissembled Franz diffusion cell and cut into pieces before placing in another Eppendorf tube containing 1 mL of methanol. All samples were vortexed and analysed using HPLC (Sect. HPLC analysis).
as §3

[6] = cited from earlier work

## CC[C@@H]1CN2CCc3c([nH]c4cccc(OC)c34)[C@@H]2C[C@@H]1/C(=C\OC)C(=O)OC [MTG, mitragynine]
[1]; oxidative and alkaline conditions
  Degradation of MTG: ~ 95%
[1]; thermal degradation
  Degradation of MTG: ~ 90%
[2]; 50 µg/mL in PBS with DTT (0.01-0.1%w/v), 96 h, lowest recovery
  Percentage recovery of MTG: ~ 81%
[2]; 50 µg/mL in PBS with ascorbic acid (0.01-0.1%w/v, regardless of concentration), 96 h
  Percentage recovery of MTG: > 99%
[2]; 50 µg/mL in PBS without antioxidant, after 96 h
  Percentage recovery of MTG: ~ 96%
[3]; 1% MTG gel with DMSO
  Drug release percentage: 65.07 ± 7.59%
[3]; 1% MTG gel with PG
  Drug release percentage: 57.45 ± 3.18%
[3]; 1% MTG gel with Transcutol
  Drug release percentage: 78.48 ± 6.17%
[4]; 1% MTG gel with DMSO and BHT
  Permeation (cumulative amount of MTG permeated): 4.76 ± 0.79 μg/cm^2
[4]; 1% MTG gel with PG and BHT
  Jss (steady-state flux): 0.95 μg/cm^2/h
  Permeation (cumulative amount of MTG permeated): 4.92 ± 0.44 μg/cm^2
[4]; 1% MTG gel with Transcutol and BHT
  Permeation (cumulative amount of MTG permeated): 3.95 ± 0.81 μg/cm^2
[4]; across all gel formulations
  tlag (lag time): 9 to 14 h
[4]; pig, 1% MTG gel with DMSO and BHT, read-out: Kp (permeability coefficient) (converted)
  Papp at 1 %: 0.00447 ×10⁻⁶ cm/s
[4]; pig, 1% MTG gel with PG and BHT, read-out: Kp (permeability coefficient) (converted)
  Papp at 1 %: 0.00525 ×10⁻⁶ cm/s
[4]; pig, 1% MTG gel with Transcutol and BHT, read-out: Kp (permeability coefficient) (converted)
  Papp at 48 h, 1 %: 0.00376 ×10⁻⁶ cm/s
[5]; 1% MTG gel with DMSO and BHT, read-out: Total percentage (mass balance recovery)
  recovery at 48 h, 1 %: 81.3 ± 24.3%
[5]; 1% MTG gel with PG and BHT, read-out: Total percentage (mass balance recovery)
  recovery at 48 h, 1 %: 85.5 ± 16.1%
[5]; 1% MTG gel with Transcutol and BHT, read-out: Total percentage (mass balance recovery)
  recovery at 48 h, 1 %: 87.7 ± 10.8%
[5]; all gel formulations (DMSO, PG, Transcutol) with BHT, read-out: Total drug recovery (mass balance)
  recovery at 48 h, 1 %: > 80%
[6]; basic environments (pH 8 and 10), 40 °C over 8 h
  MTG loss: ≤ 20%
[6]; pH 4 over 24 h
  MTG loss: ~ 11.2%
